Measurements taken from ChEMBL document CHEMBL4825709 (J Med Chem, 2021).
In brackets after ≈: the same amount, converted by molar mass. Each block holds one compound with its values, some of them ahead of it.

How the values were obtained:
physchem [1] = assay: physchem
physchem [2] = conditions: buffer, pH 7.4, logD
physchem [3] = conditions: FaSSIF, pH 6.5
[4] = Solubility of compound in pH 7.4 by charged aerosol detection method; assay type: physicochemical; conditions: buffer
[5] = Volume of distribution at steady state in Wistar Han rat at 1 mg/kg, iv measured up to 24 hrs by LC-MS/MS analysis; assay type: ADME, organism-based; conditions: in vivo, read-out: Vdss
[6] = Oral bioavailability in Wistar Han rat at 3 mg/kg measured up to 24 hrs by LC-MS/MS analysis; assay type: ADME, organism-based; conditions: in vivo
[7] = Clearance in Wistar Han rat at 1 mg/kg, iv measured up to 24 hrs by LC-MS/MS analysis; assay type: ADME, organism-based; conditions: in vivo
[8] = buffer, pH 7.4
[9] = Intrinsic clearance in rat hepatocytes at 0.5 uM measured after 60 mins by LC-MS/MS analysis; assay type: ADME, cell-based, Hepatocyte; conditions: 1 h
[10] = AUC (0 to infinity) in Wistar Han rat at 3 mg/kg, po measured up to 24 hrs by LC-MS/MS analysis; assay type: ADME, organism-based; parameters: route oral, dose 3 mg/kg, time <=24; conditions: in vivo
[11] = AUC (0 to infinity) in Wistar Han rat at 1 mg/kg, iv measured up to 24 hrs by LC-MS/MS analysis; assay type: ADME, organism-based; parameters: route intravenous, dose 1 mg/kg, time <=24; conditions: in vivo
[12] = Intrinsic clearance in human hepatocytes at 0.5 uM measured after 120 mins by LC-MS/MS analysis; assay type: ADME, cell-based, Hepatocyte; conditions: 2 h
[13] = Tmax in Wistar Han rat at 3 mg/kg, po measured up to 24 hrs by LC-MS/MS analysis; assay type: ADME, organism-based; conditions: in vivo
[14] = Intrinsic clearance in dog hepatocytes at 0.5 uM measured after 120 mins by LC-MS/MS analysis; assay type: ADME, cell-based, Canis lupus familiaris, Hepatocyte; conditions: 2 h
[15] = Half life in Wistar Han rat at 1 mg/kg, iv measured up to 24 hrs by LC-MS/MS analysis; assay type: ADME, organism-based; conditions: in vivo
[16] = Cmax in Wistar Han rat at 3 mg/kg, po measured up to 24 hrs by LC-MS/MS analysis; assay type: ADME, organism-based; parameters: route oral, dose 3 mg/kg, time <=24; conditions: in vivo

SMILES: CNC(=O)C(C1CCC1)N(CC(c1ccccc1)c1ccccc1)C(=O)c1cc(C)c(=O)n(C)c1 (centres undefined)
solubility (physchem [1]): 161 µg/mL (≈ 341 µM)
logD (physchem [2]): 4.9

SMILES: CNC(=O)C(C)N(CC(c1ccccc1)c1ccccc1)C(=O)c1cn(C)c(=O)c(C)n1 (centres undefined)
solubility ([4]; read-out: solubility): > 102 µg/mL
logD (physchem [2]): 4.1

SMILES: CNC(=O)C1(N(CC(c2ccccc2)c2ccccc2)C(=O)c2cc(C)c(=O)n(C)c2)CC1
solubility (physchem [1]): > 194 µg/mL
logD (physchem [2]): 4.4
solubility at 16 h (physchem [3]): 819 µg/mL (≈ 1850 µM)

SMILES: CCC(CN(CC(=O)NC)C(=O)c1cc(C)c(=O)n(C)c1)c1ccccc1 (centres undefined)
logD (physchem [2]): 2.8

SMILES: COCC(COC)N(CC(c1ccccc1)c1ccccc1)C(=O)c1cc(C)c(=O)n(C)c1
solubility (physchem [1]): > 186 µg/mL
logD (physchem [2]): 5.5
solubility at 16 h (physchem [3]): 78 µg/mL (≈ 174 µM)

SMILES: Cc1cc(C(=O)N(CC(c2ccccc2)c2ccccc2)C(C)C#N)cn(C)c1=O (centres undefined)
solubility (physchem [1]): > 157 µg/mL
logD (physchem [2]): 4.8
solubility at 16 h (physchem [3]): 13 µg/mL (≈ 32.5 µM)

SMILES: CNC(=O)CN(CC(C)c1ccccc1)C(=O)c1cc(C)c(=O)n(C)c1 (centres undefined)
logD (physchem [2]): 2.2

SMILES: CNC(=O)C1(N(CC(c2ccccc2)c2ccccc2)C(=O)c2cc(C)c(=O)n(C)c2)CCC1
solubility (physchem [1]): > 150 µg/mL
logD (physchem [2]): 4.9

SMILES: CNC(=O)[C@H](C1CCOCC1)N(CC(c1ccccc1)c1ccccn1)C(=O)c1cc(C)c(=O)n(C)c1 (stereo in doubt)
Vd [5]: 0.6 L/kg
solubility ([4]; read-out: solubility): > 231 µg/mL
bioavailability [6]: 16%
clearance [7]: 50 mL/min/kg
logD [8]: 2.9
CLH [9]: 3.13 mL/min/g
AUC(0-inf) [10]: 162 ng·h/mL
AUC(0-inf) [11]: 340 ng·h/mL
CLH [12]: < 0.45 mL/min/g
solubility at 16 h (physchem [3]): > 1000 µg/mL
Tmax [13]: 15 min
CLH [14]: < 0.65 mL/min/g
half-life [15]: 11.4 min
Cmax [16]: 398 nM

SMILES: CNC(=O)C(C1CCOC1)N(CC(c1ccccc1)c1ccccc1)C(=O)c1cc(C)c(=O)n(C)c1 (stereo in doubt; 22)
solubility [4]: > 185 µg/mL

SMILES: CNC(=O)C(C)N(CC(c1ccccc1)c1ccccn1)C(=O)c1cc(C)c(=O)n(C)c1 (stereo in doubt; 51)
logD [8]: 2.1

SMILES: CNC(=O)C(C)N(CC(c1ccccc1)c1ccccn1)C(=O)c1cc(C)c(=O)n(C)c1 (stereo in doubt; 57)
logD [8]: 2.6

SMILES: CNC(=O)[C@H](C1CCOCC1)N(CC(c1ccccc1)c1ccccn1)C(=O)c1cc(C)c(=O)n(C)c1 (stereo in doubt; 62)
logD (physchem [2]): 2.8

SMILES: CNC(=O)[C@@H](C1CCOCC1)N(CC(c1ccccc1)c1ccccn1)C(=O)c1cc(C)c(=O)n(C)c1 (stereo in doubt; 63)
logD [8]: 2.9

The next lines start with the values.

solubility (physchem [1]): 91 µg/mL (≈ 199 µM)
logD (physchem [2]): 4.4
solubility at 16 h (physchem [3]): 30 µg/mL (≈ 65.6 µM)
SMILES: CNC(=O)C(C1CC1)N(CC(c1ccccc1)c1ccccc1)C(=O)c1cc(C)c(=O)n(C)c1 (centres undefined)

solubility (physchem [1]): > 170 µg/mL
logD (physchem [2]): 3.6
SMILES: CCNC(=O)C(C)N(CC(c1ccccc1)c1ccccc1)C(=O)c1c[nH]c(=O)c(C)c1 (centres undefined)

solubility (physchem [1]): 114 µg/mL (≈ 265 µM)
logD (physchem [2]): 5.7
SMILES: CNC(=O)CN(CC(c1ccccc1)c1ccccc1)C(=O)c1cc(C)c(OC)c(C)c1

solubility (physchem [1]): > 169 µg/mL
logD (physchem [2]): 3.7
SMILES: CCNC(=O)C(C)N(CC(c1ccccc1)c1ccccc1)C(=O)c1ccc(=O)n(C)c1 (centres undefined)

solubility ([4]; read-out: solubility): > 138 µg/mL
logD (physchem [2]): 4
SMILES: CNC(=O)C(C1CCOC1)N(CC(c1ccccc1)c1ccccc1)C(=O)c1cc(C)c(=O)n(C)c1 (racemic)

solubility [4]: > 143 µg/mL
solubility at 16 h (physchem [3]): 987 µg/mL (≈ 2020 µM)
SMILES: CNC(=O)C(C1CCOC1)N(CC(c1ccccc1)c1ccccc1)C(=O)c1cc(C)c(=O)n(C)c1 (stereo in doubt; 21)

solubility [4]: > 181 µg/mL
SMILES: CNC(=O)C(C1CCOC1)N(CC(c1ccccc1)c1ccccc1)C(=O)c1cc(C)c(=O)n(C)c1 (stereo in doubt; 23)

solubility [4]: > 153 µg/mL
SMILES: CNC(=O)C(C1CCOC1)N(CC(c1ccccc1)c1ccccc1)C(=O)c1cc(C)c(=O)n(C)c1 (stereo in doubt; 24)

logD (physchem [2]): 2.3
SMILES: CNC(=O)C(C)N(CC(c1ccccc1)c1ccccn1)C(=O)c1cc(C)c(=O)n(C)c1 (stereo in doubt; 50)

logD [8]: 2.7
SMILES: CNC(=O)C(C)N(CC(c1ccccc1)c1ccccn1)C(=O)c1cc(C)c(=O)n(C)c1 (stereo in doubt; 56)

logD (physchem [2]): 2.8
SMILES: CNC(=O)[C@@H](C1CCOCC1)N(CC(c1ccccc1)c1ccccn1)C(=O)c1cc(C)c(=O)n(C)c1 (stereo in doubt; 61)
